Data set [1] addresses T1, recombinant human TREM2 protein (Homo sapiens, UniProt Q9NZC2).
T1 sequence (Q9NZC2 19-174 limits assumed): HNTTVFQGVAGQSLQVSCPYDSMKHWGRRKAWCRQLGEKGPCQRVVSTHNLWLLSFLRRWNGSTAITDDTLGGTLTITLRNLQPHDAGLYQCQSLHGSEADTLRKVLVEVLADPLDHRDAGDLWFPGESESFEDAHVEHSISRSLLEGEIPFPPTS
Kind of data set: microscale thermophoresis. It is filed as binding.

Another data set deals with hERG (Homo sapiens, UniProt Q12809). Description: hERG safety counterscreen. It counts as cell-based.
Chain of hERG (Q12809 whole entry): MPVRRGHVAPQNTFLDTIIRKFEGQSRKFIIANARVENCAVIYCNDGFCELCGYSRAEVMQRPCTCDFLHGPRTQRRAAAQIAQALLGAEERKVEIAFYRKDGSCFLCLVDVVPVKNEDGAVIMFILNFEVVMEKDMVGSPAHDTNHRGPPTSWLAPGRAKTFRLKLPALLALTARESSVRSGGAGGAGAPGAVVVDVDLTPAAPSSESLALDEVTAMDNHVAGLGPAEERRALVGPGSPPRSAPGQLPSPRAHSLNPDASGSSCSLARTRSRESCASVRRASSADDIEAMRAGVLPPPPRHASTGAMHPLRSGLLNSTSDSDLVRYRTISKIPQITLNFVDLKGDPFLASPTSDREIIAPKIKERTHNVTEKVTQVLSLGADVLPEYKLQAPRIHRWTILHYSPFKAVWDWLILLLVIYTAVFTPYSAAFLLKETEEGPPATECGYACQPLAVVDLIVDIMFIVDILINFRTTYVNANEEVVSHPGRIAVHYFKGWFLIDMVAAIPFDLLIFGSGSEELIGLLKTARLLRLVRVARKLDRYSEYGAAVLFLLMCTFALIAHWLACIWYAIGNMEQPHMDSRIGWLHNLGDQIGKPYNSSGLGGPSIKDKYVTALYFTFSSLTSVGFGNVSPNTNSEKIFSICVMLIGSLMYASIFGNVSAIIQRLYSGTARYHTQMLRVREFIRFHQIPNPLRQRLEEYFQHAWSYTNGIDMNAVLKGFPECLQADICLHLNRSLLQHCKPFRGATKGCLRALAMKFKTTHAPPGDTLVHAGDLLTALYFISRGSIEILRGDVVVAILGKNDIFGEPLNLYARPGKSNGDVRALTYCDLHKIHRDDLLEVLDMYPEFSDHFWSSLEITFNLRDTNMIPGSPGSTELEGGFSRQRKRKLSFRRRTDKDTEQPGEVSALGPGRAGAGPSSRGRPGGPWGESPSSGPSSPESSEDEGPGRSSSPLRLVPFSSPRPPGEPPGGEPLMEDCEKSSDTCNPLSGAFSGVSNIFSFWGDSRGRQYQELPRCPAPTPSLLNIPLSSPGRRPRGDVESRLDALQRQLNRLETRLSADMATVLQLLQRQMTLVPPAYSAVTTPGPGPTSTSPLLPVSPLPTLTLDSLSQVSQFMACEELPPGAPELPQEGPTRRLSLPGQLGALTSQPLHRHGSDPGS

In general, Kd refers to the equilibrium constant for the complex coming apart. On to `c1ccc(Nc2nc(-c3c[nH]c4ccccc34)cs2)nc1` [T2K-014], for which the Kd in data set [1] is 28900 ± 1740 nM. As to `c1ccc(Nc2nc(-c3c[nH]c4ccccc34)cs2)cc1` [T2M-002], the Kd in data set [1] amounted to 50800 ± 3740 nM. Turning to `c1ccc2c(-c3csc(NC4CC4)n3)c[nH]c2c1` [T2M-003], the Kd in data set [1] was 1350 ± 160 nM.

Broadly, the IC50 is the concentration at which inhibition is half-maximal. Lower therefore signals greater potency. Compound `c1ccc(CCNc2nc(-c3c[nH]c4ccccc34)cs2)cc1` [T2M-010] gave an IC50 at hERG of more than 60000 nM. Also, the Kd in data set [1] stood at 830 ± 100 nM. Turning to `CNc1nc(-c2c[nH]c3ccccc23)cs1` [T2M-016], in data set [1], the Kd stood at 2440 ± 300 nM.

The values are drawn from article doi:10.1101/2025.09.11.675743v1 (biorxiv, 2025).
